Read-outs that look alike come from different tables or passages of the source.
How the values were obtained:
Assay type in all cases: cell-based, human
[1] = tested on: Colo205 colon adenocarcinoma cell line; test: MTT cytotoxicity assay on doxorubicin-sensitive Colo205 cells; conditions: for IC50: Homo sapiens, COLO 205; for IC50 / Cytotoxic effect on Colo205 cells (in words): MTT; for Selectivity index SI MRC-5/Colo205: ratio of IC50 in non-tumor MRC-5 cells and IC50 in Colo205; for Cytotoxic effect on Colo205 cells (in words): up to 100 µM
Method: (§1) The doxorubicin-sensitive Colo205 (ATCC-CCL-222) and the doxorubicin-resistant ABCB1- and LRP-expressing Colo320/MDR-LRP (ATCC-CCL-220.1) human colon adenocarcinoma cell lines were obtained from LGC Promochem in Teddington, UK. These cell lines were cultivated in RPMI 1640 medium supplemented with 10% heat-inactivated foetal bovine serum (FBS), 2 mM L-glutamine, 1 mM Na-pyruvate, 10 mM HEPES, along with nystatin, and gentamicin. The normal MRC-5 (ATCC CCL-171) human embryonic lung fibroblast cell line was purchased from Sigma-Aldrich (Merck KGaA, Darmstadt, Germany). The MRC-5 cells were cultured in EMEM medium, supplemented with 1% non-essential amino acid (NEAA) mixture, a selection of vitamins, 10% heat-inactivated FBS, 2 mM L-glutamine, 1 mM Na pyruvate, nystatin, and gentamicin. The cell lines were incubated in humidified atmosphere (5% CO2, 95% air) at 37 °C. The cells were detached with a Trypsin-Versene (EDTA) solution for 5 min at 37 °C.
(§2) The effects of increasing concentrations of the compounds on cell growth were tested in 96-well flat-bottomed microtiter plates. Namely, 1 × 10^4 of human colonic adenocarcinoma cells in 100 μL of the medium (RPMI 1640) were added to each well, except for the medium control wells. The adherent human embryonic lung fibroblast cell line was seeded in the EMEM medium for 24 h before the assay. The two-fold serial dilutions of the compounds were made in a separate plate (100–0.19 μM) and then transferred to the plates containing the cells. The starting concentration of the solvent DMSO was 2% v/v, and the highest concentration of the compounds in the plate was 100 μM. Plates were incubated at 37 °C for 24 h. At the end of the incubation, 20 μL of MTT (thiazolyl blue tetrazolium bromide) solution (from a 5 mg/mL stock solution) was added to each well. After incubation at 37 °C for 4 h, 100 μL of sodium dodecyl sulfate (SDS) solution (10% SDS in 0.01 M HCl) was added to each well, and the plates were further incubated at 37 °C overnight. Cell growth was determined by measuring the optical density (OD) at 540 nm (ref. 630 nm) with a Multiscan EX ELISA reader (Thermo Labsystems, Cheshire, WA, USA). Inhibition of cell growth was expressed as IC50 values, defined as the inhibitory dose that reduces the growth of the cells exposed to the tested compounds by 50%. IC50 values and the SD of triplicate and duplicate (in the case of MRC-5) experiments were calculated by using GraphPad Prism software version 5.00 for Windows, with a non-linear regression curve fit (GraphPad Software, San Diego, CA, USA; www.graphpad.com, accessed on 12 July 2021). Doxorubicin (from a 2 mg/mL stock solution, Teva Pharmaceuticals) was used as a positive control. […] The relative resistance (RR) was calculated as the ratio of the IC50 value in the resistant cancer cells and the IC50 value in the sensitive cancer cell lines. The selectivity indexes (SI) were calculated as the ratio of the IC50 value in the non-tumor cells and the IC50 value in the cancer cell lines. The activity of the compounds towards cancer cells is considered to be strongly selective if the selectivity index (SI) value is higher than 6, moderately selective if 3 < SI < 6, slightly selective if 1 < SI < 3, and non-selective if the SI is lower than 1 [22].

[2] = tested on: Colo320/MDR-LRP colon adenocarcinoma cell line; test: MTT cytotoxicity assay on doxorubicin-resistant, ABCB1- and LRP-expressing Colo320 cells; conditions: for IC50: Homo sapiens, COLO 320; for IC50 / Cytotoxic effect on Colo320 cells (in words): MTT; for Selectivity index SI MRC-5/Colo320: ratio of IC50 in non-tumor MRC-5 cells and IC50 in Colo320; for Cytotoxic effect on Colo320 cells (in words): up to 100 µM
Method: as §1, §2

[3] = tested on: MRC-5 embryonic lung fibroblast cell line; test: MTT cytotoxicity assay on normal MRC-5 fibroblasts; conditions: for IC50: Homo sapiens; for Cytotoxic effect on normal MRC-5 cells (in words): up to 100 µM
Method: as §1, §2

[4] = 24 h, single experiment, read-out: IC50 Colo205, parallel experiment 1
[5] = 24 h, single experiment, read-out: IC50 Colo205, parallel experiment 2
[6] = 24 h, single experiment, read-out: IC50 Colo205, parallel experiment 3
[7] = 24 h incubation, average of 3 parallel experiments, read-out: IC50 Colo205 AV ± SD
[8] = 24 h, single experiment, read-out: IC50 Colo320, parallel experiment 1
[9] = 24 h, single experiment, read-out: IC50 Colo320, parallel experiment 2
[10] = 24 h, single experiment, read-out: IC50 Colo320, parallel experiment 3
[11] = 24 h incubation, average of 3 parallel experiments, read-out: IC50 Colo320 AV ± SD
[12] = MRC5, 24 h incubation, average of 2 parallel experiments, read-out: IC50 MRC-5 AV ± SD
[13] = MRC5, 24 h, single experiment, read-out: IC50 MRC-5, parallel experiment 1
[14] = MRC5, 24 h, single experiment, read-out: IC50 MRC-5, parallel experiment 2

SMILES | IC50 [1, 4] | IC50 [1, 5] | IC50 [1, 6] | IC50 [1, 7] | Selectivity index SI MRC-5/Colo205 [1] | IC50 [2, 8] | IC50 [2, 9] | IC50 [2, 10] | IC50 [2, 11] | Selectivity index SI MRC-5/Colo320 [2] | IC50 [3, 12] | Cytotoxic effect on normal MRC-5 cells (in words) [3] | IC50 [3, 13] | IC50 [3, 14] | Cytotoxic effect on Colo205 cells (in words) [1] | Cytotoxic effect on Colo320 cells (in words) [2]
CCOC(=O)C(c1cc(Cl)c2cccnc2c1O)N1CCOCC1 (stereo not shown) [Compound 10, Ethyl 2-(5-chloro-8-hydroxyquinolin-7-yl)-2-morpholinoacetate] | 2.07 µM | 2.06 µM | 2.02 µM | 2.05 ± 0.02 µM | >6 | 1.56 µM | 1.81 µM | 1.79 µM | 1.72 ± 0.14 µM | >6 | > 100 µM | no toxicity |  |  |  | 
CCOC(=O)C(c1cc(Cl)c2cccnc2c1O)c1c[nH]c2ncccc12 (stereo not shown) [Compound 12, Ethyl 2-(5-chloro-8-hydroxyquinolin-7-yl)-2-(7-azaindole-3-yl)acetate] | 8.05 µM | 7.42 µM | 8.84 µM | 8.11 ± 0.71 µM | 5.7 | 5.16 µM | 4.92 µM | 5.11 µM | 5.06 ± 0.12 µM | 9.1 | 46.2 ± 0.95 µM | mild cytotoxic effect | 46.9 µM | 45.6 µM |  | 
Oc1c(Cc2c[nH]c3ncccc23)cc(Cl)c2cccnc12 [Compound 17, 7-((7-azaindole-3-yl)methyl)-5-chloroquinolin-8-ol] | 36.5 µM | 39.4 µM | 40.4 µM | 38.8 ± 2.03 µM |  | 23 µM | 21.9 µM | 22.5 µM | 22.5 ± 0.55 µM |  | > 100 µM |  |  |  |  | 
O=C1Oc2ccc3ccccc3c2C1c1c[nH]c2ccccc12 (stereo not shown) [Compound 3, 1-(1H-indol-3-yl)naphtho[2,1-b]furan-2(1H)-one] |  |  |  | > 100 µM |  |  |  |  | > 100 µM |  | > 100 µM |  |  |  | no effect | no effect
Oc1c(C(c2ccccc2)c2c[nH]c3ccccc23)cc(Cl)c2cccnc12 (stereo not shown) [Compound 14, 7-((1H-indol-3-yl)(phenyl)methyl)-5-chloroquinolin-8-ol] | 2.49 µM | 2.49 µM | 2.63 µM | 2.53 ± 0.08 µM | 11.7 | 2.55 µM | 2.84 µM | 2.78 µM | 2.72 ± 0.15 µM | 11 | 29.7 ± 0.57 µM | mild cytotoxic effect | 30.1 µM | 29.3 µM |  | 
COc1cccc2c1C(=O)c1c(O)c3c(c(O)c1C2=O)C[C@@](O)(C(=O)CO)C[C@@H]3O[C@H]1C[C@H](N)[C@H](O)[C@H](C)O1 [DOX, Doxorubicin, reference compound] | 0.84 µM | 0.89 µM | 0.81 µM | 0.85 ± 0.04 µM |  | 3.12 µM | 3.12 µM | 2.96 µM | 3.07 ± 0.09 µM |  | > 8.62 µM |  |  |  |  | 
CCOC(=O)C(c1ccc2ccccc2c1O)c1c[nH]c2ccccc12 (stereo not shown) [Compound 7, Ethyl 2-(1-hydroxynaphthalen-2-yl)-2-(1H-indol-3-yl)acetate] |  |  |  | > 100 µM |  | 53.8 µM | 54.9 µM | 52.2 µM | 53.6 ± 1.38 µM |  | > 100 µM |  |  |  | no effect | 
Oc1c(Cc2c[nH]c3ccccc23)cc(Cl)c2cccnc12 [Compound 16, 7-((1H-indol-3-yl)methyl)-5-chloroquinolin-8-ol] | 13.6 µM | 13.4 µM | 12.3 µM | 13.1 ± 0.7 µM | >6 | 4.97 µM | 4.74 µM | 4.91 µM | 4.87 ± 0.12 µM | >6 | > 100 µM | no toxicity |  |  |  | potent toxic activity
CCOC(=O)C(c1cc(Cl)c2cccnc2c1O)c1c[nH]c2ccccc12 (stereo not shown) [Compound 11, Ethyl 2-(5-chloro-8-hydroxyquinolin-7-yl)-2-(1H-indol-3-yl)acetate] | 5.51 µM | 4.71 µM | 4.42 µM | 4.88 ± 0.56 µM | 11.2 | 4.64 µM | 4.83 µM | 4.96 µM | 4.81 ± 0.16 µM | 11.4 | 54.77 ± 0.44 µM | mild cytotoxic effect | 54.5 µM | 55.1 µM |  | 

Reference: PMC11396803, “Synthesis of Tumor Selective Indole and 8-Hydroxyquinoline Skeleton Containing Di-, or Triarylmethanes with Improved Cytotoxic Activity” (Molecules, 2024)
